Test results published in ChEMBL document CHEMBL5154690, “Discovery of a tricyclic farnesoid X receptor agonist HEC96719, a clinical candidate for treatment of non-alcoholic steatohepatitis” (Eur J Med Chem, 2022).
Active and inactive are the calls of the source. The calls are words filed in the database; no cut-off is given here.

Assays:
[1] = Half-life in male Sprague-Dawley rat at 5 mg/kg, po measured by LC-MS/MS analysis; type: ADME, organism-based; details: in vivo
[2] = Volume of distribution at steady state in male Sprague-Dawley rat at 1 mg/kg, iv measured by LC-MS/MS analysis; type: ADME, organism-based; details: in vivo, read-out: Vdss
[3] = target: T1, G-protein coupled bile acid receptor 1 (Homo sapiens) (UniProt Q8TDU6); assay: Agonist activity in human GPBAR1 assessed as increase in intracellular cAMP level relative to control; type: functional, cell-based
T1 sequence (whole entry): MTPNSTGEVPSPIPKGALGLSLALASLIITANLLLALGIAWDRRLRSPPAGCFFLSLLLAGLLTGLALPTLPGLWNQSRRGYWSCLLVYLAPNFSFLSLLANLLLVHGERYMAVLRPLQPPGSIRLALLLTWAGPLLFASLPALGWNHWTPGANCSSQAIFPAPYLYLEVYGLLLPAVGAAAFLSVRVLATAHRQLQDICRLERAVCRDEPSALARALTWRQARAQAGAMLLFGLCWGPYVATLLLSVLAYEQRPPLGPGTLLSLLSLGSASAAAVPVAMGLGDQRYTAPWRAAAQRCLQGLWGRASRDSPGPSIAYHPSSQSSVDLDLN

[4] = target: T2, Nuclear receptor subfamily 1 group I member 2 (Homo sapiens, UniProt O75469); assay: Agonist activity at PXR (unknown origin)
T2 sequence (O75469 whole entry): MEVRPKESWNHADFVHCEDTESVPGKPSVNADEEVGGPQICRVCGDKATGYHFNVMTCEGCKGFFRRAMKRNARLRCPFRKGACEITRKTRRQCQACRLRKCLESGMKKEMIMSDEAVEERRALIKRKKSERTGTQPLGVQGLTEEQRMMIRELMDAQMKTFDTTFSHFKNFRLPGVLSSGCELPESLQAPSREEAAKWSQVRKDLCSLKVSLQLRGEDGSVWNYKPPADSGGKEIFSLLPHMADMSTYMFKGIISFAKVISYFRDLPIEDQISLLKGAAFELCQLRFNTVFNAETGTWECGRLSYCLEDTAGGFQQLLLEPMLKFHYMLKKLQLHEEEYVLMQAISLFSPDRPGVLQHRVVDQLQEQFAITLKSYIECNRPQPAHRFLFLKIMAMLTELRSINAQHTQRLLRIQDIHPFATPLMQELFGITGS

Mus musculus [5] = assay: Anti-NASH activity against high fat (HF) diet-induced nonalcoholic steatohepatitis in leptin-deficient ob/ob mouse model assessed as reduction in serum TG level at 0.1 to 1 mg/kg, po administered once daily from week 5 to 10; type: functional, organism-based; details: dose 0.1-1 mg/kg
Mus musculus [6] = assay: Anti-NASH activity against high fat (HF) diet-induced nonalcoholic steatohepatitis in leptin-deficient ob/ob mouse model assessed as reduction in NASH activity score (NAS) at 0.3 to 1 mg/kg, po administered once daily from week 5 to 10; type: functional, organism-based; details: dose 0.3-1 mg/kg
Mus musculus [7] = assay: Anti-NASH activity in western style diet-induced nonalcoholic steatohepatitis model of male C57BL/6 mouse assessed as reduction in liver TG level at 1 mg/kg, po administered once daily from week 32 to 44; type: functional, organism-based
[8] = Clearance in male C57BL/6 mouse at 2 mg/kg, iv measured by LC-MS/MS analysis; type: ADME, organism-based; details: in vivo
[9] = Volume of distribution at steady state in male C57BL/6 mouse at 2 mg/kg, iv measured by LC-MS/MS analysis; type: ADME, organism-based; details: in vivo, read-out: Vdss
[10] = Oral bioavailability in male C57BL/6 mouse at 5 mg/kg measured by LC-MS/MS analysis; type: ADME, organism-based; details: in vivo
[11] = Half-life in male Sprague-Dawley rat at 1 mg/kg, iv measured by LC-MS/MS analysis; type: ADME, organism-based; details: in vivo
[12] = Volume of distribution at steady state in male Beagle dog at 1 mg/kg, iv measured by LC-MS/MS analysis; type: ADME, organism-based, Canis lupus familiaris; details: in vivo, read-out: Vdss
[13] = Drug metabolism in plasma of Sprague-Dawley rat assessed as production of toxic metabolites at 4.5 mg/kg, po administered as C14-lableled compound with single dose; type: ADME, organism-based; details: in vivo
[14] = Drug recovery in pancreas of male Sprague-Dawley rat at 4.5 mg/kg, po administered as C14-lableled compound and assessed as radioactivity and measured at 0.25 hrs; type: ADME, organism-based; details: in vivo
[15] = Drug recovery in kidney of male Sprague-Dawley rat at 4.5 mg/kg, po administered as C14-lableled compound and assessed as radioactivity and measured at 0.25 hrs; type: ADME, organism-based; details: in vivo
[16] = Drug recovery in liver of male Sprague-Dawley rat at 4.5 mg/kg, po administered as C14-lableled compound and assessed as radioactivity and measured at 0.25 hrs; type: ADME, organism-based; details: in vivo
[17] = Drug recovery in brain of male Sprague-Dawley rat at 4.5 mg/kg, po administered as C14-lableled compound and assessed as radioactivity and measured at 1 hr; type: ADME, organism-based; details: in vivo
[18] = Drug recovery in spleen of male Sprague-Dawley rat at 4.5 mg/kg, po administered as C14-lableled compound and assessed as radioactivity and measured at 1 hr; type: ADME, organism-based; details: in vivo
[19] = Drug recovery in stomach of male Sprague-Dawley rat at 4.5 mg/kg, po administered as C14-lableled compound and assessed as radioactivity and measured at 1 hr; type: ADME, organism-based; details: in vivo
[20] = Drug recovery in stomach of male Sprague-Dawley rat at 4.5 mg/kg, po administered as C14-lableled compound and assessed as radioactivity and measured at 6 hrs; type: ADME, organism-based; details: in vivo
[21] = Drug recovery in heart of male Sprague-Dawley rat at 4.5 mg/kg, po administered as C14-lableled compound and assessed as radioactivity and measured at 24 hrs; type: ADME, organism-based; details: in vivo, BLD = below limit of detection
[22] = Drug recovery in spleen of male Sprague-Dawley rat at 4.5 mg/kg, po administered as C14-lableled compound and assessed as radioactivity and measured at 24 hrs; type: ADME, organism-based; details: in vivo, BLD = below limit of detection
[23] = Drug recovery in lung of male Sprague-Dawley rat at 4.5 mg/kg, po administered as C14-lableled compound and assessed as radioactivity and measured at 24 hrs; type: ADME, organism-based; details: in vivo, BLD = below limit of detection
[24] = Drug recovery in plasma of male Sprague-Dawley rat at 4.5 mg/kg, po administered as C14-lableled compound and assessed as radioactivity and measured at 24 hrs; type: ADME, organism-based; details: in vivo, BLD = below limit of detection
[25] = Mutagenecity in Salmonella typhimurium TA98 measured by Ames test; type: toxicity; details: salmonella enterica subsp. enterica serovar typhimurium
[26] = Mutagenecity in Salmonella typhimurium TA1535 measured by Ames test; type: toxicity; details: salmonella enterica subsp. enterica serovar typhimurium

O=C(O)c1ccc2c(c1)Oc1ccc(OCc3c(-c4c(Cl)cccc4Cl)noc3C3CC3)nc1C1(CC1)C2
half-life [1]: 96 min
Vd [2]: 0.65 L/kg
Activity [3]: 29%
EC50 [4]: > 10 µM
Activity (Mus musculus [5]): Active
Activity (Mus musculus [6]): Active
Activity (Mus musculus [7]): Active
clearance [8]: 160 mL/min/kg
Vd [9]: 3.83 L/kg
bioavailability [10]: 82.5%
half-life [11]: 16.8 min
Vd [12]: 1.12 L/kg
Drug metabolism [13]: Metabolite_Notdetected
Drug recovery [14]: 177 ngequiv/g
Drug recovery [15]: 281 ngequiv/g
Drug recovery [16]: 5308 ngequiv/g
Drug recovery [17]: 38.2 ngequiv/g
Drug recovery [18]: 104 ngequiv/g
Drug recovery [19]: 1536 ngequiv/g
Drug recovery [20]: 188 ngequiv/g
Drug recovery [21]: Bld
Drug recovery [22]: Bld
Drug recovery [23]: Bld
Drug recovery [24]: Bld
Activity [25]: Non-Toxic
Activity [26]: Non-Toxic
